From PubChem BioAssay AID1963866 (Molecular Pharmacology Branch, DTP, NCI, 2024)
Where “and” joins values, the source holds several entries; their conditions need not be identical. Identical values can stand only once. Calls of active or inactive are those of the source. How the source made its calls: active means viability on the fitted dose curve at most 10% of control; inactive means the rest.

System: PDC KRAS tumor spheroids with HUVEC/MSC, viability
Assay: Anticancer human tumor 349418-098-R-PDC patient-derived lung adenocarcinoma cell line growth inhibition [KRAS2]
Conditions: for viability, T/C: stronger effect = lower value
Source text: Multicellular complex tumor spheroid response to RAS pathway inhibitors in combination with a targeted agents in patient-derived cell lines with oncogenic KRAS variants from multiple cancer types
A high-throughput screen of multi-cell type tumor spheroids was designed to identify active combinations of targeted small molecules and KRAS pathway inhibitors. Complex spheroids include a stromal component modeled by human endothelial cells (HUVEC) and fibroblasts modeled by human mesenchymal stem cells (MSCs). The concentration ranges selected for each drug and investigational agent were based upon clinically achievable concentrations if the clinical Cmax of the agent was known.
Compounds. The drugs and investigational agents: BI-3406 (NSC825286), BAY-293 (NSC824723), batoprotafib (TNO155; NSC825523), sotorasib (AMG 510; NSC818433), MRTX1257 (NSC819558), elimusertib (BAY 1895344; NSC800525), molibresib (GSK525762; NSC774829), temuterkib (LY3214996; NSC803410), venetoclax (NSC766270), alisertib (NSC759677), olaparib (NSC753686), talazoparib (NSC767125), erdafitinib (NSC781556), ipatasertib (NSC767898), cabozantinib (NSC761068), nintedanib (NSC756659), abemaciclib (NSC768073), docetaxel (NSC628503), trametinib (NSC758246), and sapanisertib (NSC764658) were obtained from the National Cancer Institute (NCI) Developmental Therapeutics Program Chemical Repository. The FDA-approved anticancer drug set is available from the Developmental Therapeutics Program. […] The stock solutions were prepared in dimethyl sulfoxide (DMSO, Sigma-Aldrich, St. Louis, MO, cat. D2650) at 800-fold the tested concentration and stored at -70 degrees C prior to their use. All drugs and investigational agents were tested over a range starting from a high concentration at or near the clinical Cmax and decreasing in half-log increments. If the clinical Cmax for an agent had not been determined, the highest concentration tested was 10 microM.
Cell Culture. All cells were maintained in an incubator at 37 degrees C and 5% CO2 with 95% humidity. The PDC lines were cultured according to standard operating procedures established by the NCI PDMR (https://pdmr.cancer.gov/sops/default.htm). Briefly, all PDCs were thawed and cultured in Matrigel-coated flasks prepared with a working solution of 1X Ham's F-12 nutrient mix, without supplementation (Invitrogen, Waltham, MA, cat. 11765054), 100 U/mL penicillin-streptomycin (Invitrogen, cat. 15140122), and 2.5% Matrigel (Corning Inc., Corning, NY, cat. 354248) for the first three passages. All PDCs were cultured in complete DMEM/F-12 media containing advanced DMEM/F-12 (Invitrogen, cat. 12634028), 4.9% defined fetal bovine serum, heat inactivated (HyClone Laboratories Inc., Logan, UT, cat. SH30070.03HI), 389 ng/mL hydrocortisone (Sigma-Aldrich, cat. H4001), 9.7 ng/mL human EGF recombinant protein (Invitrogen, cat. PHG0313), 23.4 microg/mL adenine (Sigma-Aldrich, cat. A2786), 97.3 U/mL penicillin-streptomycin (Invitrogen, cat. 15140122), 1.9 mM L-glutamine (Invitrogen, cat. 25030081), and 9.7 microM Y-27632 dihydrochloride (Tocris Bioscience, Bristol, United Kingdom, cat. 1254). The PDCs were cultured in complete DMEM/F12 media without 9.7 microM Y-27632 dihydrochloride for at least two passages prior to the screen. The established cell line HOP-62 was cultured in RPMI 1640 medium, HEPES (Invitrogen, cat. 22400105) with 10% defined fetal bovine serum (HyClone Laboratories Inc., cat. SH30070.03) and 2 mM L-glutamine (Invitrogen, cat. 25030081). The pooled donor HUVEC were cultured in endothelial cell growth medium 2 (PromoCell, Heidelberg, Germany, cat. C-22011) and the hMSC were cultured in mesenchymal stem cell growth medium 2 (PromoCell, cat. C-28009). For all experiments, HUVEC and hMSC were used at passages </=5, while the malignant cell lines were used at passages </=15. […]

[1] = curve of first compound, second compound 0.1 µM
[2] = curve of first compound, second compound 0.316 µM
[3] = curve of first compound, second compound 1 µM
[4] = curve of first compound, second compound 3.16 µM
[5] = curve of first compound, second compound 10 µM
[6] = second compound 0.1 µM, first compound 0.0316 µM
[7] = second compound 0.1 µM, first compound 0.1 µM
[8] = second compound 0.1 µM, first compound 0.316 µM
[9] = second compound 0.1 µM, first compound 1 µM
[10] = second compound 0.1 µM, first compound 3.16 µM
[11] = second compound 0.316 µM, first compound 0.0316 µM
[12] = second compound 0.316 µM, first compound 0.1 µM
[13] = second compound 0.316 µM, first compound 0.316 µM
[14] = second compound 0.316 µM, first compound 1 µM
[15] = second compound 0.316 µM, first compound 3.16 µM
[16] = second compound 1 µM, first compound 0.0316 µM
[17] = second compound 1 µM, first compound 0.1 µM
[18] = second compound 1 µM, first compound 0.316 µM
[19] = second compound 1 µM, first compound 1 µM
[20] = second compound 1 µM, first compound 3.16 µM
[21] = second compound 3.16 µM, first compound 0.0316 µM
[22] = second compound 3.16 µM, first compound 0.1 µM
[23] = second compound 3.16 µM, first compound 0.316 µM
[24] = second compound 3.16 µM, first compound 1 µM
[25] = second compound 3.16 µM, first compound 3.16 µM
[26] = second compound 10 µM, first compound 0.0316 µM
[27] = second compound 10 µM, first compound 0.1 µM
[28] = second compound 10 µM, first compound 0.316 µM
[29] = second compound 10 µM, first compound 1 µM
[30] = second compound 10 µM, first compound 3.16 µM
[31] = second compound 0.1 µM, first compound 10 µM
[32] = second compound 0.316 µM, first compound 10 µM
[33] = second compound 1 µM, first compound 10 µM
[34] = second compound 3.16 µM, first compound 10 µM
[35] = second compound 10 µM, first compound 10 µM
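Further: spheroids exposed to compounds for seven days before readout.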

CC1COCCN1c1cc(-c2ccnn2C)c2ccnc(-c3ccn[nH]3)c2n1 (stereo unspecified) + CC1OCC2(CCN(c3cnc(Sc4ccnc(N)c4Cl)c(N)n3)CC2)C1N
37.8 nM: IC50 [3]
30.4 nM: IC50 [1]
26.9 nM: IC50 [2]
37.4 nM: IC50 [4]
25.4 nM: IC50 [5]
active: viability, T/C [7] 9.73% | viability, T/C [8] 7% | viability, T/C [9] 4.41% | viability, T/C [10] 4.8% | viability, T/C [12] 9.52% | viability, T/C [13] 7.35% | viability, T/C [14] 4.82% | viability, T/C [15] 4.26% | viability, T/C [18] 7.13% | viability, T/C [19] 5.99% | viability, T/C [20] 4.5% | viability, T/C [23] 6.94% | viability, T/C [24] 4.63% | viability, T/C [25] 4.81% | viability, T/C [27] 9.52% | viability, T/C [28] 5.38% | viability, T/C [29] 4.95% | viability, T/C [30] 4.71%
inactive: viability, T/C (second compound 0.1 µM, first compound 0.01 µM) 98.1% | viability, T/C [6] 48.2% | viability, T/C (second compound 0.316 µM, first compound 0.01 µM) 115% | viability, T/C [11] 39.4% | viability, T/C (second compound 1 µM, first compound 0.01 µM) 117% | viability, T/C [16] 56.9% | viability, T/C [17] 12.2% | viability, T/C (second compound 3.16 µM, first compound 0.01 µM) 97.7% | viability, T/C [21] 56.8% | viability, T/C [22] 10.1% | viability, T/C (second compound 10 µM, first compound 0.01 µM) 89.6% | viability, T/C [26] 40.6%

COc1cc(Nc2ncc3c(n2)-c2ccc(Cl)cc2C(c2c(F)cccc2OC)=NC3)ccc1C(=O)O
inactive: viability, T/C (compound 0.1 µM) 27.8% [middle of 5 runs] | viability, T/C (compound 0.316 µM) 33.1% [middle of 5 runs] | viability, T/C (compound 1 µM) 35.6% [middle of 5 runs] | viability, T/C (compound 3.16 µM) 33.9% [middle of 5 runs] | viability, T/C (compound 10 µM) 24.8% [middle of 5 runs]
< 31.6 nM and 43.2 nM: IC50 (curve of compound)

CC(C)NCC(C(=O)N1CCN(c2ncnc3c2C(C)CC3O)CC1)c1ccc(Cl)cc1 (stereo unspecified) + COc1cc2nc(C)nc(NC(C)c3cc(N)cc(C(F)(F)F)c3)c2cc1OC1CCOC1
< 31.6 nM: IC50 [5]
178 nM: IC50 [3]
active: viability, T/C [31] 6.37% | viability, T/C [15] 7.59% | viability, T/C [32] 6.32% | viability, T/C [20] 6.85% | viability, T/C [33] 3.87% | viability, T/C [25] 6.58% | viability, T/C [34] 5.75% | viability, T/C [28] 7.61% | viability, T/C [29] 3.94% | viability, T/C [30] 1.89% | viability, T/C [35] 2.67%
279 nM: IC50 [1]
146 nM: IC50 [4]
270 nM: IC50 [2]
inactive: viability, T/C [6] 98.1% | viability, T/C [7] 73% | viability, T/C [8] 49.4% | viability, T/C [9] 23.1% | viability, T/C [10] 10.2% | viability, T/C [11] 85.4% | viability, T/C [12] 77% | viability, T/C [13] 44.8% | viability, T/C [14] 18.9% | viability, T/C [16] 93% | viability, T/C [17] 66.4% | viability, T/C [18] 31.4% | viability, T/C [19] 22% | viability, T/C [21] 71.9% | viability, T/C [22] 58.3% | outcome [23] | viability, T/C [24] 13.9% | viability, T/C [26] 26.9% | viability, T/C [27] 20.7%

Cn1nccc1Nc1nccc(-c2cc3c(s2)C(C)(C)N(CCN2CCOCC2)C3=O)n1
52.2 nM [middle of 5 runs]: IC50 (curve of compound)
active: viability, T/C (compound 3.16 µM) 7.8% [middle of 5 runs] | viability, T/C (compound 10 µM) 5.9% [middle of 5 runs]
inactive: viability, T/C (compound 0.0316 µM) 56.4% [middle of 5 runs] | viability, T/C (compound 0.1 µM) 40.2% [middle of 5 runs] | viability, T/C (compound 0.316 µM) 21.2% [middle of 5 runs] | viability, T/C (compound 1 µM) 14.3% [middle of 5 runs]

CCN1CCN(Cc2ccc(Nc3ncc(F)c(-c4cc(F)c5nc(C)n(C(C)C)c5c4)n3)nc2)CC1
inactive: viability, T/C (compound 0.00316 µM) 60.9% [middle of 5 runs] | viability, T/C (compound 0.01 µM) 35.7% [middle of 5 runs] | viability, T/C (compound 0.0316 µM) 19.6% [middle of 5 runs] | viability, T/C (compound 0.1 µM) 16.7% [middle of 5 runs]
14.5% [middle of 5 runs]: viability, T/C (compound 0.316 µM)
5.13% [middle of 5 runs]: viability, T/C (compound 1 µM)

CC(C)NCC(C(=O)N1CCN(c2ncnc3c2C(C)CC3O)CC1)c1ccc(Cl)cc1 (stereo unspecified) + C=CC(=O)N1CCN(c2nc(=O)n(-c3c(C)ccnc3C(C)C)c3nc(-c4c(O)cccc4F)c(F)cc23)C(C)C1
active: viability, T/C [31] 7.87% | viability, T/C [32] 6.33% | viability, T/C [25] 9.31% | viability, T/C [34] 5.92% | viability, T/C [29] 9.76% | viability, T/C [30] 7.72% | viability, T/C [35] 5.23%
inactive: viability, T/C [6] 101% | viability, T/C [7] 79.6% | viability, T/C [8] 44.7% | viability, T/C [9] 26.6% | viability, T/C [10] 14.2% | viability, T/C [11] 87.2% | viability, T/C [12] 80.5% | viability, T/C [13] 40.6% | viability, T/C [14] 27% | viability, T/C [15] 14.1% | viability, T/C [16] 89.1% | viability, T/C [17] 73.1% | viability, T/C [18] 28.9% | viability, T/C [19] 15.6% | viability, T/C [20] 12.7% | viability, T/C [33] 5.98% | viability, T/C [21] 61.1% | viability, T/C [22] 52.9% | viability, T/C [23] 23.3% | viability, T/C [24] 15.2% | viability, T/C [26] 35.1% | viability, T/C [27] 18.2% | viability, T/C [28] 15.9%
287 nM: IC50 [1]
275 nM: IC50 [2]
< 31.6 nM: IC50 [5]
107 nM: IC50 [4]
184 nM: IC50 [3]

CC(C)n1nc(-c2ccc3oc(N)nc3c2)c2c(N)ncnc21
active: viability, T/C (compound 0.0316 µM) 9.1% [middle of 5 runs] | viability, T/C (compound 0.1 µM) 8.83% [middle of 5 runs]
inactive: viability, T/C (compound 0.000316 µM) 87.2% [middle of 5 runs] | viability, T/C (compound 0.001 µM) 47.6% [middle of 5 runs] | viability, T/C (compound 0.00316 µM) 17.1% [middle of 5 runs]
0.92 nM [middle of 5 runs]: IC50 (curve of compound)
10.7% [middle of 5 runs]: viability, T/C (compound 0.01 µM)
